{
  "source": "ChEMBL document CHEMBL6103592",
  "about": "“Discovery of novel thiazole-pleuromutilin derivatives with potent antibacterial activity” (Eur J Med Chem, 2025)",
  "data": [
    {"system": "Enterococcus faecalis", "assay": "Antibacterial activity against Enterococcus faecalis assessed as inhibition of visible bacterial growth incubated for 24 hrs by CLSI based broth microdilution method", "format": "functional", "units": {"MIC": "µg/mL"}, "values": [
      {"compound": "C=C[C@]1(C)C[C@@H](OC(=O)CSc2nc(OC(=O)CCC)cs2)[C@]2(C)[C@H](C)CC[C@]3(CCC(=O)[C@H]32)[C@@H](C)[C@@H]1O", "MIC": "> 32"},
      {"compound": "C=C[C@]1(C)C[C@@H](OC(=O)CSc2nc(OC(=O)c3cccs3)cs2)[C@]2(C)[C@H](C)CC[C@]3(CCC(=O)[C@H]32)[C@@H](C)[C@@H]1O", "MIC": "> 32"},
      {"compound": "C=C[C@]1(C)C[C@@H](OC(=O)CSc2nc(OC(=O)CCCCC)cs2)[C@]2(C)[C@H](C)CC[C@]3(CCC(=O)[C@H]32)[C@@H](C)[C@@H]1O", "MIC": "> 32"},
      {"compound": "C=C[C@]1(C)C[C@@H](OC(=O)CSc2nc(OC(=O)c3ccc(F)cc3)cs2)[C@]2(C)[C@H](C)CC[C@]3(CCC(=O)[C@H]32)[C@@H](C)[C@@H]1O", "MIC": "> 32"},
      {"compound": "C=C[C@]1(C)C[C@@H](OC(=O)CSc2nc(OC(=O)CCCCCCC)cs2)[C@]2(C)[C@H](C)CC[C@]3(CCC(=O)[C@H]32)[C@@H](C)[C@@H]1O", "MIC": "> 32"},
      {"compound": "C=C[C@]1(C)C[C@@H](OC(=O)CSC2=NC(=O)CS2)[C@]2(C)[C@H](C)CC[C@]3(CCC(=O)[C@H]32)[C@@H](C)[C@@H]1O", "MIC": "> 32"},
      {"compound": "C=C[C@]1(C)C[C@@H](OC(=O)CSc2nc(OC(=O)c3ccc(Cl)cc3)cs2)[C@]2(C)[C@H](C)CC[C@]3(CCC(=O)[C@H]32)[C@@H](C)[C@@H]1O", "MIC": "> 32"},
      {"compound": "C=C[C@]1(C)C[C@@H](OC(=O)CSc2nc(OC(=O)c3ccccc3F)cs2)[C@]2(C)[C@H](C)CC[C@]3(CCC(=O)[C@H]32)[C@@H](C)[C@@H]1O", "MIC": "> 32"}
    ]},
    {"system": "Mycoplasma", "assay": "Antibacterial activity against Mycoplasma F3 assessed as inhibition of visible bacterial growth incubated for 24 hrs by CLSI based broth microdilution method", "format": "functional", "units": {"MIC": "µg/mL"}, "values": [
      {"compound": "C=C[C@]1(C)C[C@@H](OC(=O)CSc2nc(OC(=O)CCC)cs2)[C@]2(C)[C@H](C)CC[C@]3(CCC(=O)[C@H]32)[C@@H](C)[C@@H]1O", "MIC": 0.25},
      {"compound": "C=C[C@]1(C)C[C@@H](OC(=O)CSc2nc(OC(=O)c3cccs3)cs2)[C@]2(C)[C@H](C)CC[C@]3(CCC(=O)[C@H]32)[C@@H](C)[C@@H]1O", "MIC": 0.25},
      {"compound": "C=C[C@]1(C)C[C@@H](OC(=O)CSc2nc(OC(=O)CCCCC)cs2)[C@]2(C)[C@H](C)CC[C@]3(CCC(=O)[C@H]32)[C@@H](C)[C@@H]1O", "MIC": 0.5},
      {"compound": "C=C[C@]1(C)C[C@@H](OC(=O)CSc2nc(OC(=O)c3ccc(F)cc3)cs2)[C@]2(C)[C@H](C)CC[C@]3(CCC(=O)[C@H]32)[C@@H](C)[C@@H]1O", "MIC": 0.25},
      {"compound": "C=C[C@]1(C)C[C@@H](OC(=O)CSc2nc(OC(=O)CCCCCCC)cs2)[C@]2(C)[C@H](C)CC[C@]3(CCC(=O)[C@H]32)[C@@H](C)[C@@H]1O", "MIC": 0.5},
      {"compound": "C=C[C@]1(C)C[C@@H](OC(=O)CSC2=NC(=O)CS2)[C@]2(C)[C@H](C)CC[C@]3(CCC(=O)[C@H]32)[C@@H](C)[C@@H]1O", "MIC": 0.5},
      {"compound": "C=C[C@]1(C)C[C@@H](OC(=O)CSc2nc(OC(=O)c3ccc(Cl)cc3)cs2)[C@]2(C)[C@H](C)CC[C@]3(CCC(=O)[C@H]32)[C@@H](C)[C@@H]1O", "MIC": 0.25},
      {"compound": "C=C[C@]1(C)C[C@@H](OC(=O)CSc2nc(OC(=O)c3ccccc3F)cs2)[C@]2(C)[C@H](C)CC[C@]3(CCC(=O)[C@H]32)[C@@H](C)[C@@H]1O", "MIC": 0.25}
    ]},
    {"system": "Escherichia coli", "assay": "Antibacterial activity against Escherichia coli ATCC 25922 assessed as inhibition of visible bacterial growth incubated for 24 hrs by CLSI based broth microdilution method", "format": "functional", "units": {"MIC": "µg/mL"}, "values": [
      {"compound": "C=C[C@]1(C)C[C@@H](OC(=O)CSc2nc(OC(=O)CCC)cs2)[C@]2(C)[C@H](C)CC[C@]3(CCC(=O)[C@H]32)[C@@H](C)[C@@H]1O", "MIC": "> 32"},
      {"compound": "C=C[C@]1(C)C[C@@H](OC(=O)CSc2nc(OC(=O)c3cccs3)cs2)[C@]2(C)[C@H](C)CC[C@]3(CCC(=O)[C@H]32)[C@@H](C)[C@@H]1O", "MIC": "> 32"},
      {"compound": "C=C[C@]1(C)C[C@@H](OC(=O)CSc2nc(OC(=O)CCCCC)cs2)[C@]2(C)[C@H](C)CC[C@]3(CCC(=O)[C@H]32)[C@@H](C)[C@@H]1O", "MIC": "> 32"},
      {"compound": "C=C[C@]1(C)C[C@@H](OC(=O)CSc2nc(OC(=O)c3ccc(F)cc3)cs2)[C@]2(C)[C@H](C)CC[C@]3(CCC(=O)[C@H]32)[C@@H](C)[C@@H]1O", "MIC": "> 32"},
      {"compound": "C=C[C@]1(C)C[C@@H](OC(=O)CSc2nc(OC(=O)CCCCCCC)cs2)[C@]2(C)[C@H](C)CC[C@]3(CCC(=O)[C@H]32)[C@@H](C)[C@@H]1O", "MIC": "> 32"},
      {"compound": "C=C[C@]1(C)C[C@@H](OC(=O)CSC2=NC(=O)CS2)[C@]2(C)[C@H](C)CC[C@]3(CCC(=O)[C@H]32)[C@@H](C)[C@@H]1O", "MIC": "> 32"},
      {"compound": "C=C[C@]1(C)C[C@@H](OC(=O)CSc2nc(OC(=O)c3ccc(Cl)cc3)cs2)[C@]2(C)[C@H](C)CC[C@]3(CCC(=O)[C@H]32)[C@@H](C)[C@@H]1O", "MIC": "> 32"},
      {"compound": "C=C[C@]1(C)C[C@@H](OC(=O)CSc2nc(OC(=O)c3ccccc3F)cs2)[C@]2(C)[C@H](C)CC[C@]3(CCC(=O)[C@H]32)[C@@H](C)[C@@H]1O", "MIC": "> 32"}
    ]},
    {"system": "Staphylococcus aureus", "assay": "Antibacterial activity against Staphylococcus aureus ATCC 25923 assessed as inhibition of visible bacterial growth incubated for 24 hrs by CLSI based broth microdilution method", "format": "functional", "units": {"MIC": "µg/mL"}, "values": [
      {"compound": "C=C[C@]1(C)C[C@@H](OC(=O)CSc2nc(OC(=O)CCC)cs2)[C@]2(C)[C@H](C)CC[C@]3(CCC(=O)[C@H]32)[C@@H](C)[C@@H]1O", "MIC": 1},
      {"compound": "C=C[C@]1(C)C[C@@H](OC(=O)CSc2nc(OC(=O)c3cccs3)cs2)[C@]2(C)[C@H](C)CC[C@]3(CCC(=O)[C@H]32)[C@@H](C)[C@@H]1O", "MIC": 0.5},
      {"compound": "C=C[C@]1(C)C[C@@H](OC(=O)CSc2nc(OC(=O)CCCCC)cs2)[C@]2(C)[C@H](C)CC[C@]3(CCC(=O)[C@H]32)[C@@H](C)[C@@H]1O", "MIC": 1},
      {"compound": "C=C[C@]1(C)C[C@@H](OC(=O)CSc2nc(OC(=O)c3ccc(F)cc3)cs2)[C@]2(C)[C@H](C)CC[C@]3(CCC(=O)[C@H]32)[C@@H](C)[C@@H]1O", "MIC": 0.5},
      {"compound": "C=C[C@]1(C)C[C@@H](OC(=O)CSc2nc(OC(=O)CCCCCCC)cs2)[C@]2(C)[C@H](C)CC[C@]3(CCC(=O)[C@H]32)[C@@H](C)[C@@H]1O", "MIC": 2},
      {"compound": "C=C[C@]1(C)C[C@@H](OC(=O)CSC2=NC(=O)CS2)[C@]2(C)[C@H](C)CC[C@]3(CCC(=O)[C@H]32)[C@@H](C)[C@@H]1O", "MIC": 0.5},
      {"compound": "C=C[C@]1(C)C[C@@H](OC(=O)CSc2nc(OC(=O)c3ccc(Cl)cc3)cs2)[C@]2(C)[C@H](C)CC[C@]3(CCC(=O)[C@H]32)[C@@H](C)[C@@H]1O", "MIC": 0.5},
      {"compound": "C=C[C@]1(C)C[C@@H](OC(=O)CSc2nc(OC(=O)c3ccccc3F)cs2)[C@]2(C)[C@H](C)CC[C@]3(CCC(=O)[C@H]32)[C@@H](C)[C@@H]1O", "MIC": 0.5}
    ]},
    {"system": "Staphylococcus aureus", "assay": "Antibacterial activity against methicillin-resistant Staphylococcus aureus ATCC 43300 assessed as inhibition of visible bacterial growth incubated for 24 hrs by CLSI based broth microdilution method", "format": "functional", "units": {"MIC": "µg/mL"}, "values": [
      {"compound": "C=C[C@]1(C)C[C@@H](OC(=O)CSc2nc(OC(=O)CCC)cs2)[C@]2(C)[C@H](C)CC[C@]3(CCC(=O)[C@H]32)[C@@H](C)[C@@H]1O", "MIC": 1},
      {"compound": "C=C[C@]1(C)C[C@@H](OC(=O)CSc2nc(OC(=O)c3cccs3)cs2)[C@]2(C)[C@H](C)CC[C@]3(CCC(=O)[C@H]32)[C@@H](C)[C@@H]1O", "MIC": 1},
      {"compound": "C=C[C@]1(C)C[C@@H](OC(=O)CSc2nc(OC(=O)CCCCC)cs2)[C@]2(C)[C@H](C)CC[C@]3(CCC(=O)[C@H]32)[C@@H](C)[C@@H]1O", "MIC": 1},
      {"compound": "C=C[C@]1(C)C[C@@H](OC(=O)CSc2nc(OC(=O)c3ccc(F)cc3)cs2)[C@]2(C)[C@H](C)CC[C@]3(CCC(=O)[C@H]32)[C@@H](C)[C@@H]1O", "MIC": 0.5},
      {"compound": "C=C[C@]1(C)C[C@@H](OC(=O)CSc2nc(OC(=O)CCCCCCC)cs2)[C@]2(C)[C@H](C)CC[C@]3(CCC(=O)[C@H]32)[C@@H](C)[C@@H]1O", "MIC": 2},
      {"compound": "C=C[C@]1(C)C[C@@H](OC(=O)CSC2=NC(=O)CS2)[C@]2(C)[C@H](C)CC[C@]3(CCC(=O)[C@H]32)[C@@H](C)[C@@H]1O", "MIC": 1},
      {"compound": "C=C[C@]1(C)C[C@@H](OC(=O)CSc2nc(OC(=O)c3ccc(Cl)cc3)cs2)[C@]2(C)[C@H](C)CC[C@]3(CCC(=O)[C@H]32)[C@@H](C)[C@@H]1O", "MIC": 0.5},
      {"compound": "C=C[C@]1(C)C[C@@H](OC(=O)CSc2nc(OC(=O)c3ccccc3F)cs2)[C@]2(C)[C@H](C)CC[C@]3(CCC(=O)[C@H]32)[C@@H](C)[C@@H]1O", "MIC": 0.5}
    ]},
    {"system": "Streptococcus agalactiae", "assay": "Antibacterial activity against Streptococcus agalactiae assessed as inhibition of visible bacterial growth incubated for 24 hrs by CLSI based broth microdilution method", "format": "functional", "units": {"MIC": "µg/mL"}, "values": [
      {"compound": "C=C[C@]1(C)C[C@@H](OC(=O)CSc2nc(OC(=O)CCC)cs2)[C@]2(C)[C@H](C)CC[C@]3(CCC(=O)[C@H]32)[C@@H](C)[C@@H]1O", "MIC": 0.125},
      {"compound": "C=C[C@]1(C)C[C@@H](OC(=O)CSc2nc(OC(=O)c3cccs3)cs2)[C@]2(C)[C@H](C)CC[C@]3(CCC(=O)[C@H]32)[C@@H](C)[C@@H]1O", "MIC": 0.25},
      {"compound": "C=C[C@]1(C)C[C@@H](OC(=O)CSc2nc(OC(=O)CCCCC)cs2)[C@]2(C)[C@H](C)CC[C@]3(CCC(=O)[C@H]32)[C@@H](C)[C@@H]1O", "MIC": 0.125},
      {"compound": "C=C[C@]1(C)C[C@@H](OC(=O)CSc2nc(OC(=O)c3ccc(F)cc3)cs2)[C@]2(C)[C@H](C)CC[C@]3(CCC(=O)[C@H]32)[C@@H](C)[C@@H]1O", "MIC": 0.125},
      {"compound": "C=C[C@]1(C)C[C@@H](OC(=O)CSc2nc(OC(=O)CCCCCCC)cs2)[C@]2(C)[C@H](C)CC[C@]3(CCC(=O)[C@H]32)[C@@H](C)[C@@H]1O", "MIC": 0.125},
      {"compound": "C=C[C@]1(C)C[C@@H](OC(=O)CSC2=NC(=O)CS2)[C@]2(C)[C@H](C)CC[C@]3(CCC(=O)[C@H]32)[C@@H](C)[C@@H]1O", "MIC": 0.125},
      {"compound": "C=C[C@]1(C)C[C@@H](OC(=O)CSc2nc(OC(=O)c3ccc(Cl)cc3)cs2)[C@]2(C)[C@H](C)CC[C@]3(CCC(=O)[C@H]32)[C@@H](C)[C@@H]1O", "MIC": 0.063},
      {"compound": "C=C[C@]1(C)C[C@@H](OC(=O)CSc2nc(OC(=O)c3ccccc3F)cs2)[C@]2(C)[C@H](C)CC[C@]3(CCC(=O)[C@H]32)[C@@H](C)[C@@H]1O", "MIC": 0.125}
    ]}
  ]
}
